Data published in US7335674B2, “Benzothiazole-4,7-diones and benzoxazole-4,7-diones with substituents in position 5 or 6 and method for production thereof” (Societe de Conseils de Recherches et d'Applications …, priority 2003, dated 2008).

How the values were obtained:
[1] = system: Mia-Paca2 (human pancreas cancer cells); experiment: Antiproliferative activity, WST1 colorimetric test, Mia-PaCa2; assay type: cell-based; conditions: MIA PaCa-2, Mia-Paca2, treated 96 hours, up to 10 μM, read-out: IC50 on the cell proliferation of the Mia-Paca2 lines
Procedure: (§1) iii) Characterization of the Antiproliferative Activity:
(§2) By way of example, the effect of a treatment on two human cell lines Mia-Paca2 and DU145 by the compounds of the examples described previously will be studied. The cell lines DU145 (human prostate cancer cells) and Mia-PaCa2 (human pancreas cancer cells) were acquired from the American Tissue Culture Collection (Rockville, Md., USA). The cells placed in 80 μl of Dulbecco's Modified Eagle's medium (Gibco-Brl, Cergy-Pontoise, France) completed with 10% foetal calf serum inactivated by heating (Gibco-Brl, Cergy-Pontoise, France), 50,000 units/l of penicillin and 50 mg/l of streptomycin (Gibco-Brl, 10378-057, Cergy-Pontoise, France), and 2 mM of glutamine (Gibco-Brl, Cergy-Pontoise, France) were seeded on a 96-well plate on day 0. The cells were treated on day 1 for 96 hours with increasing concentrations of each of the compounds to be tested up to 10 μM. At the end of this period, quantification of cell proliferation is evaluated by a colorimetric test based on the cleavage of the tetrazolium salt WST1 by the mitochondrial dehydrogenases in viable cells leading to the formation of formazan (Boehringer Mannheim, Meylan, France). These tests are carried out in duplicate with 8 determinations per concentration tested. For each compound to be tested, the values included in the linear part of the sigmoid were retained for a linear regression analysis and used to estimate the inhibitory concentration IC50. The products are solubilized in dimethylsulphoxide (DMSO) at 10^−2 M and finally used in culture with 0.1% DMSO.

[2] = system: DU145 (human prostate cancer cells); experiment: Antiproliferative activity, WST1 colorimetric test, DU145; assay type: cell-based; conditions: DU-145, treated 96 hours, up to 10 μM, read-out: IC50 on the cell proliferation of the DU-145 lines
Procedure: as §1, §2

SMILES	IC50 [1] [µM]	IC50 [2] [µM]	melting point [°C]
O=C1C=C(NCCN2CCCC2)C(=O)c2oc(-c3ccccc3Br)nc21 [Example 45, 2-(2-bromophenyl)-6-[(2-pyrrolidin-1-ylethyl)amino]-1,3-benzoxazole-4,7-dione]	≤ 10	≤ 10	123 to 124
O=C1C=C(NCCN2CCCC2)C(=O)c2oc(-c3cccc(Br)c3)nc21 [Example 46, 2-(3-bromophenyl)-6-[(2-pyrrolidin-1-ylethyl)amino]-1,3-benzoxazole-4,7-dione]	≤ 10	≤ 10	163 to 164
O=C1C=C(NCCN2CCCC2)C(=O)c2oc(-c3cccc(Cl)c3)nc21 [Example 47, 2-(3-chlorophenyl)-6-[(2-pyrrolidin-1-ylethyl)amino]-1,3-benzoxazole4,7-dione]	≤ 10	≤ 10	161 to 162
O=C1C=C(NCCN2CCCC2)C(=O)c2oc(-c3ccc(Br)cc3)nc21 [Example 48, 2-(4-bromophenyl)-6-[(2-pyrrolidin-1-ylethyl)amino]-1,3-benzoxazole-4,7-dione]	≤ 10	≤ 10	165 to 166
O=C1C=C(NCCN2CCCC2)C(=O)c2oc(-c3cc(Br)cc(Br)c3)nc21 [Example 49, 2-(3,5-dibromophenyl)-6-[(2-pyrrolidin-1-ylethyl)amino]-1,3-benzoxazole-4,7-dione]	≤ 10	≤ 10	202 to 203
O=C1C=C(NCCN2CCCC2)C(=O)c2oc(-c3ccc(F)cc3)nc21 [Example 50, 2-(4-fluorophenyl)-6-[(2-pyrrolidin-1-ylethyl)amino]-1,3-benzoxazole-4,7-dione]	≤ 10	≤ 10	170 to 171
O=C1C=C(NCCN2CCCC2)C(=O)c2oc(-c3cc(F)cc(F)c3)nc21 [Example 51, 2-(3,5-difluorophenyl)-6-[(2-pyrrolidin-1-ylethyl)amino]-1,3-benzoxazole-4,7-dione]	≤ 10	≤ 10	163 to 164
O=C1C=C(NCCN2CCCC2)C(=O)c2oc(-c3cc(F)c(F)c(F)c3)nc21 [Example 52, 6-[(2-pyrrolidin-1-ylethyl)amino]-2-(3,4,5-trifluorophenyl)-1,3-benzoxazole4,7-dione]	≤ 10	≤ 10	171 to 172
Cc1cc(-c2nc3c(o2)C(=O)C(NCCN2CCCC2)=CC3=O)ccc1Br [Example 53, 2-(4-bromo-3-methylphenyl)-6-[(2-pyrrolidin-1-ylethyl)amino]-1,3-benzoxazole-4,7-dione]	≤ 10	≤ 10	171 to 172
O=C1C=C(NCCN2CCCC2)C(=O)c2oc(-c3ccc(Br)cc3Cl)nc21 [Example 55, 2-(4-bromo-2-chlorophenyl)-6-[(2-pyrrolidin-1-ylethyl)amino]-1,3-benzoxazole-4,7-dione]	≤ 10	≤ 10	153 to 154
COc1ccc(-c2nc3c(o2)C(=O)C(NCCN2CCCC2)=CC3=O)cc1OC [Example 57, 2-(3,4-dimethoxyphenyl)-6-[(2-pyrrolidin-1-ylethyl)amino]-1,3-benzoxazole-4,7-dione]	≤ 10	≤ 10	198.5 to 199.5
O=C1C=C(NCCN2CCCC2)C(=O)c2oc(Cc3c(F)cccc3Cl)nc21 [Example 58, 2-(2-chloro-6-fluorobenzyl)-6-[(2-pyrrolidin-1-ylethyl)amino]-1,3-benzoxazole-4,7-dione]	≤ 10	≤ 10	173 to 174
O=C1C=C(NCCN2CCCC2)C(=O)c2oc(-c3ccc4c(c3)OCO4)nc21 [Example 59, 2-(1,3-benzodioxol-5-yl)-6-[(2-pyrrolidin-1-ylethyl)amino]-1,3-benzoxazole4,7-dione]	≤ 10	≤ 10	171 to 172

Now from value to molecule:

IC50 [1] [µM]	IC50 [2] [µM]	melting point [°C]	SMILES
≤ 10	≤ 10	147 to 148	CN(C)CCNC1=CC(=O)c2nc(-c3ccccc3Br)oc2C1=O [Example 28, 2-(2-bromophenyl)-6-{[2-(dimethylamino)ethyl]amino}-1,3-benzoxazole4,7-dione]
≤ 10	≤ 10	174 to 175	CN(C)CCNC1=CC(=O)c2nc(-c3cccc(Br)c3)oc2C1=O [Example 29, 2-(3-bromophenyl)-6-{[2-(dimethylamino)ethyl]amino}-1,3-benzoxazole4,7-dione]
≤ 10	≤ 10	174 to 175	CN(C)CCNC1=CC(=O)c2nc(-c3cccc(Cl)c3)oc2C1=O [Example 30, 2-(3-chlorophenyl)-6-{[2-(dimethylamino)ethyl]amino}-1,3-benzoxazole4,7-dione]
≤ 10	≤ 10	181 to 182	CN(C)CCNC1=CC(=O)c2nc(-c3ccc(Br)cc3)oc2C1=O [Example 31, 2-(4-bromophenyl)-6-{[2-(dimethylamino)ethyl]amino}-1,3-benzoxazole-4,7-dione]
≤ 10	≤ 10	206 to 207	CN(C)CCNC1=CC(=O)c2nc(-c3cc(Br)cc(Br)c3)oc2C1=O [Example 32, 2-(3,5-dibromophenyl)-6-{[2-(dimethylamino)ethyl]amino}-1,3-benzoxazole-4,7-dione]
≤ 10	≤ 10	169 to 170	CN(C)CCNC1=CC(=O)c2nc(-c3ccc(F)cc3)oc2C1=O [Example 33, 6-{[2-(dimethylamino)ethyl]amino}-2-(4-fluorophenyl)-1,3-benzoxazole4,7-dione]
≤ 10	≤ 10	176 to 177	CN(C)CCNC1=CC(=O)c2nc(-c3cc(F)cc(F)c3)oc2C1=O [Example 34, 2-(3,5-difluorophenyl)-6-{[2-(dimethylamino)ethyl]amino}-1,3-benzoxazole-4,7-dione]
≤ 10	≤ 10	178 to 179	CN(C)CCNC1=CC(=O)c2nc(-c3cccc(F)c3F)oc2C1=O [Example 35, 2-(2,3-difluorophenyl)-6-{[2-(dimethylamino)ethyl]amino}-1,3-benzoxazole-4,7-dione]
≤ 10	≤ 10	188 to 189	CN(C)CCNC1=CC(=O)c2nc(-c3cc(F)c(F)c(F)c3)oc2C1=O [Example 36, 6-{[2-(dimethylamino)ethyl]amino}-2-(3,4,5-trifluorophenyl)-1,3-benzoxazole4,7-dione]
≤ 10	≤ 10	165 to 166	Cc1cc(-c2nc3c(o2)C(=O)C(NCCN(C)C)=CC3=O)ccc1Br [Example 37, 2-(4-bromo-3-methylphenyl)-6-{[2-(dimethylamino)ethyl]amino}-1,3-benzoxazole-4,7-dione]
≤ 10	≤ 10	151 to 152	CCc1ccc(-c2nc3c(o2)C(=O)C(NCCN(C)C)=CC3=O)cc1 [Example 38, 6-{[2-(dimethylamino)ethyl]amino}-2-(4-ethylphenyl)-1,3-benzoxazole-4,7-dione]
≤ 10	≤ 10	163 to 164	CN(C)CCNC1=CC(=O)c2nc(-c3ccc(Br)cc3Cl)oc2C1=O [Example 39, 2-(4-bromo-2-chlorophenyl)-6-{[2-(dimethylamino)ethyl]amino}-1,3-benzoxazole4,7-dione]
≤ 10	≤ 10	181 to 182	COc1ccc(-c2nc3c(o2)C(=O)C(NCCN(C)C)=CC3=O)cc1OC [Example 41, 2-(3,4-dimethoxyphenyl)-6-{[2-(dimethylamino)ethyl]amino}-1,3-benzoxazole-4,7-dione]
≤ 10	≤ 10	172 to 173	CN(C)CCNC1=CC(=O)c2nc(Cc3c(Cl)cccc3Cl)oc2C1=O [Example 42, 2-(2,6-dichlorobenzyl)-6-{[2-(dimethylamino)ethyl]amino}-1,3-benzoxazole4,7-dione]
≤ 10	≤ 10	178 to 179	CN(C)CCNC1=CC(=O)c2nc(Cc3c(F)cccc3Cl)oc2C1=O [Example 43, 2-(2-chloro-6-fluorobenzyl)-6-{[2-(dimethylamino)ethyl]amino}-1,3-benzoxazole4,7-dione]
≤ 10	≤ 10	153 to 154	CN(C)CCNC1=CC(=O)c2nc(Cc3cccc4ccccc34)oc2C1=O [Example 44, 6-{[2-(dimethylamino)ethyl]amino}-2-(1-naphthylmethyl)-1,3-benzoxazole-4,7-dione]
